The values that follow come from patent US8324156B2, “Oral insulin therapies and protocol” (Emisphere Technologies, Inc., priority 2003, dated 2012).

Like-named read-outs stand apart in the source and are kept apart here.

Data set [1] has as its system blood glucose. To be noted: oral sulfonylureas; cited from earlier work.
The conditions of data set [2]: cited from earlier work; for time to peak plasma/serum drug concentration (tmax): fasting or immediately prior to a meal.
The subject of data set [3] is blood glucose. Particulars: marketed insulin preparations; cited from earlier work.
A short description of data set [4]: Moisture content / hygroscopicity of 4-CNAB. The class given is physicochemical. Particulars: below 75% RH.
Data set [5] can be described thus: Plasma 4-CNAB concentration (Example 1). The class given is in vivo, human. To be noted: after start of meal intake; 200 mg or 400 mg 4-CNAB capsules. On the procedure:
During each treatment session, blood samples were collected for determination of plasma concentrations of 4-CNAB, insulin and C-peptide, and for blood glucose concentration. Sampling started 1 hour before intake of the test meal and continued until 6 hours thereafter. Blood samples were drawn via a venous cannula and collected related to the start of the test meal at time point 0. The timing of scheduled samples could be adjusted according to clinical needs or needs for pharmacokinetic data. The duration of each session was approximately 8-9 hours. All experiments were performed after an overnight fast of approximately 12 hours.
Blood samples for determination of 4-CNAB plasma concentrations (2 mL in sodium heparin tube) were drawn 10, 20, 30, 40, 60, 90, 120, 240 and 360 minutes after start of meal intake (9 samples per session). Blood samples for determination of insulin and C-peptide plasma concentrations (5 mL in sodium heparin tube) were drawn at −60 and −30 minutes, at time 0 (start of meal intake), and after 10, 20, 30, 40, 50, 60, 75, 90, 105, 120, 150, 180, 210, 240, 300, and 360 minutes (19 samples per session). Plasma concentrations of insulin were determined by a GLP-validated microparticle enzyme immunoassay (MEIA).
Blood samples for the determination of plasma concentrations of insulin, 4-CNAB and C-peptide were collected at defined intervals, as discussed above. […]

A further data set is described as follows: Genotoxicity studies. Particulars: four genotoxicity studies. The method, then:
(§1) Toxicology studies were also conducted in rats and monkeys to assess the potential toxicity of 4-CNAB, alone or in combination with insulin. Based on the 14-day oral repeated dose toxicity studies, the NOAEL (No-Adverse Effect Level) was estimated to be 500 mg/kg in Sprague-Dawley rats, and 400 mg/kg in rhesus monkeys. […] Developmental and reproductive toxicology studies have not yet been conducted.

In another data set the test system is rhesus monkeys. The data set is described as follows: Oral repeated dose toxicity studies in monkeys. The data set is classed as in vivo, rhesus monkey. On the procedure: as §1
A further data set deals with Sprague-Dawley rats. The data set is described as follows: Oral repeated dose toxicity studies in rats. The class given is in vivo, rat. The method, then:
as §1

A further data set deals with receptors. The data set can be described thus: Receptor binding screening assays. On the procedure: Insulin/4-CNAB capsules were evaluated by Emisphere Technologies, Inc. in a nonclinical program that included pharmacological screening, pharmacokinetic and metabolic profiles, and toxicity assessments in rats and monkeys. […] Similarly, for a fixed oral dose of 4-CNAB, insulin absorption increased with increasing doses of insulin.

The mark [6] stands for this setting: dosed three times daily before meals.

For `Cc1ccc(S(=O)(=O)NC(=O)NN2CCCCCC2)cc1` [Tolazamide], the onset of action in the data set on blood glucose [1] is 4 to 6 h.
As for `CCCNC(=O)NS(=O)(=O)c1ccc(Cl)cc1` [Chlorpropamide], in the data set on blood glucose [1], the duration of action was 72 h and the onset of action result is “one”.
Take `CCC1=C(C)CN(C(=O)NCCc2ccc(S(=O)(=O)NC(=O)N[C@H]3CC[C@H](C)CC3)cc2)C1=O` [Glimepiride]: in the data set with blood glucose [1], the duration of action was 18 to 28 h and the onset of action was 2 h.
Turning to `Cc1cnc(C(=O)NCCc2ccc(S(=O)(=O)NC(=O)NC3CCCCC3)cc2)cn1` [Glipizide], in the data set with blood glucose [1], the duration of action was 10 to 24 h and the onset of action entry was “one”.
Turning to `CN(CCOc1ccc(CC2SC(=O)NC2=O)cc1)c1ccccn1` (stereo not drawn) [AVANDIA® thiazolidinedione, rosiglitazone], in data set [2] (food effect), the “time to peak concentration with food” value was “about 1.75 hours”. The “time to peak plasma/serum drug concentration (tmax)” value in data set [2] (oral) was ≤ 1 h.
On to `CCCCNC(=O)NS(=O)(=O)c1ccc(C)cc1` [tolbutamide], for which, in the data set on blood glucose [1], the duration of action is 6 to 12 h and the onset of action was 1 h.
Turning to `CCOc1cc(CC(=O)N[C@@H](CC(C)C)c2ccccc2N2CCCCC2)ccc1C(=O)O` [repaglinide], in data set [2] (food effect), the “decrease in AUC when given with food” value was 12.4% and the “decrease in Cmax when given with food” value was 20%. Further, the “time to peak plasma/serum drug concentration (tmax)” value in data set [2] (oral) was ≤ 1 h.
Regarding `CC(C)[C@H]1CC[C@H](C(=O)N[C@H](Cc2ccccc2)C(=O)O)CC1` [nateglinide], in data set [2] (after oral administration), the “time to stimulation of pancreatic insulin secretion” value is ≤ 20 min. In data set [2] (setting [6]), the “fall of plasma insulin to baseline after dosing” value is ≤ 4 h and the “time of peak plasma insulin levels after dosing” value was ~1 h. Besides, the “time to peak plasma/serum drug concentration (tmax)” value in data set [2] (oral) is “one”.
For the molecule Ultralente insulin, in the data set with blood glucose [3], the onset of action is 2 to 4 h and the “peak time of effect” value is 8 to 20 h.
For the molecule Glargine insulin: long-acting insulin, in the data set with blood glucose [3], the duration of activity is 24 h and the “peak time of effect” value is “no peak effect”.
Take `COc1ccc(Cl)cc1C(=O)NCCc1ccc(S(=O)(=O)NC(=O)NC2CCCCC2)cc1` [glyburide]: in the data set with blood glucose [1], the duration of action is 18 to 24 h and the onset of action was 1.5 h.
Turning to Lantus®, the duration of activity result with blood glucose [3] is listed as “up to 24 hours”.
For `CC(=O)c1ccc(S(=O)(=O)NC(=O)NC2CCCCC2)cc1` [Acetohexamide], in the data set with blood glucose [1], the onset of action is 1 h.
The NOAEL is the highest dose or exposure tested at which no adverse effect was seen. On to `O=C([O-])CCCNC(=O)c1ccc(Cl)cc1O.[Na+]` [4-CNAB, sodium N-[4-(4-chloro-2 hydroxybenzoyl)amino]butyrate], for which the residual moisture content in data set [4] is given as < 0.5%. In data set [5], the “plasma 4-CNAB concentration after 2 hours relative to the levels seen after 10 minutes” value is “less than 10%”. The genotoxicity findings result in “Genotoxicity studies” is reported as “no positive findings”. Besides, the “NOAEL (No-Adverse Effect Level)” value in the data set with rhesus monkeys (14-day oral repeated dose, rhesus monkeys) worked out at 400 mg/kg; with Sprague-Dawley rats (14-day oral repeated dose, Sprague-Dawley rats, 4-CNAB alone or in combination with insulin), 500 mg/kg. Besides, the NOAEL with rhesus monkeys (90-day oral repeated dose, monkeys) is 600 mg/kg; with Sprague-Dawley rats (90-day oral repeated dose, rats) it was 250 mg/kg. The inherent pharmacological activity entry in the data set with receptors is on record as “no inherent pharmacological activity”.
In the case of `CCc1ccc(CCOc2ccc(CC3SC(=O)NC3=O)cc2)nc1` (stereo not drawn) [ACTOS® thiazolidinedione, pioglitazone], in data set [2] (oral, fasting state), the “first measurable in serum” value is ≤ 30 min. The “time to peak plasma/serum drug concentration (tmax)” value in [2] (oral) is ≤ 2 h.
